In the oligonucleotide strings, read from the 5' end, every base follows the letter of its sugar. An asterisk marks phosphorothioate; unmarked linkages are phosphodiester. Other units and linkages are bracketed, terminal groups are in braces. A string of capitals states the bases alone. e = 2'-O-(2-methoxyethyl) (MOE); [5mC] = 5-methylcytosine
Tests used:
[1] = tested on: E-selectin mRNA (Type III polyadenylation signal and site); experiment: E-selectin transcript forms by Northern blot in TNF-α-induced HUVEC; assay type: cell-based, human; details: increasing oligonucleotide dose, TNF-α 2 hours
Protocol: HUVEC (Clonetics, San Diego, Calif.) were cultivated in endothelial basal media supplemented with 10% fetal bovine serum. Cells were treated with oligonucleotides as described previously (Chiang, 1991, J. Biol. Chem. 27:18162-18171; Vickers, 2000, Nucleic Acids Res. 28:1340-1347). Briefly, cells were incubated with a mixture of Lipofectin (Gibco BRL, Gaithersburg, Md.) and oligonucleotide for 4 hours. Cells were incubated for 2-24 hours, then treated with 5 ng/ml TNF-α for 2-3 hours to induce expression of E-selectin. Cells were then washed extensively with phosphate buffered saline (PBS), fresh complete media was added and cells were incubated at 37° C. until harvested.
(§1) Total RNA was harvested from HUVEC at various times following TNF-α induction using a ToTALLY RNA kit (Ambion) according to the manufacturer's protocol). For Northern blots, RNA was separated on a 1.2% agarose gel containing 1.1% formaldehyde, then transferred to nylon membranes. Blots were hybridized with [^32P]-dCTP random prime labeled cDNA probes specific for E-selectin or […] (G3PDH) for 2 hours in Rapid-hyb solution (Amersham). Blots were washed with 2×SSC containing 0.1% SDS at room temperature, followed by 0.1×SSC containing 0.1% SDS at 60° C. Quantitation of RNA expression was performed using a Molecular Dynamics PhosphorImager. Anchored reverse transcriptase polymerase chain reaction (RT/PCR) was performed essentially as described by Chu et al. (supra.).
HUVEC were treated with 2′-O-methoxyethyl (MOE)/phosphorothioate antisense oligonucleotides directed to the Type III polyadenylation signal and site (Table 1A) as described above. After about 24 hours, cells were treated with TNF-α to induce E-selectin expression. Cells were harvested after 2 hours and RNA was isolated. E-selectin expression was analyzed by Northern blotting. […] With increasing oligonucleotide dose, the longer Type III message decreased while a shorter message increased (FIG. 2). This shorter message most likely represents a combination of Type I and II messages, because the Type II message is just 158 bases longer than the Type I message, and the difference in sizes cannot be resolved on the gel which was used.

[2] = tested on: Human IL-5 receptorα; experiment: Human IL-5 receptorα protein expression on the cell surface (36 hr), TF-1 cells; assay type: cell-based; parameters: % INHIB, human IL-5 receptorα protein on the cell surface / % of CONTROL, human IL-5 receptorα protein on the cell surface: concentration or dose not given beside the values
Source text: (§2) A series of oligonucleotides were designed to target various splice sites or (intron-exon boundaries) in the IL-5 receptor mRNA.
ISIS 16746, 16748, 16755 and 16758 inhibited human IL-5 receptorα protein by over 50% in this assay and are therefore preferred. ISIS 16758 and 16755 were chosen for further study.

[3] = tested on: TF-1 cells; experiment: IL-5-induced TF-1 cell proliferation, [3H]-thymidine incorporation; assay type: cell-based, human; details: for % of control thymidine incorporation: compared to untreated controls
Protocol: 2.5×10^4 TF-1 cells were incubated in 96-well plates in 200 μl complete RPMI in the absence of IL-5 for 16 hours following electroporation. IL-5 (0.5 ng/ml) was added and the cultures were pulsed with 1 μCi of [^3H]-thymidine for the last 8 hours of a 48-hour culture period. The cells were harvested on glass fiber filters and analyzed for thymidine incorporation (proportional to cell proliferation) by liquid scintillation counting.
Results are compared to thymidine incorporation in untreated controls.

[4] = tested on: Human IL-5 receptorα membrane form mRNA; experiment: Human IL-5 receptorα membrane form mRNA expression (18 hr); assay type: cell-based; parameters: % INHIB'N, human IL-5 receptorα membrane form mRNA / % of CONTROL, human IL-5 receptorα membrane form mRNA: concentration or dose not given beside the values
Source text: mRNA transcripts encoding the membrane form of the human IL-5 receptorα contain exons 1-10 and 12-14. Exon 11 is spliced out. It is, therefore, possible to target sequences in exons 1-10 which are common to both soluble and membrane forms of the receptor, or to selectively target sequences only present in the membrane form (exons 12-14). Oligonucleotides were also designed to target various intron/exon boundaries downstream of exon 11, with the intention of preventing successful splicing out of exon 11 and thus redirecting splice products away from the membrane form and in favor of the soluble form of IL-5 receptorα.
as §2

[5] = tested on: E-selectin mRNA; experiment: Non-quantitative RT-PCR of E-selectin Type I, II and III transcripts in HUVEC; assay type: cell-based, human; details: relative to untreated cells, 200 nM stated for ISIS 106344
Protocol: as §1
To determine if processing could be controlled more specifically, oligonucleotides were also designed to the upstream polyadenylation signals. Non-quantitative RT-PCR was used to distinguish among the three forms of the message. In the absence of oligonucleotide, all three types of transcript were detected. […] This difference may be due to variation in the efficiency of PCR amplification on the varying length products, with the shorter Type I and II messages being more efficiently amplified than the Type III product. […] To determine if the effects of ISIS 106344 were unique, antisense oligonucleotides were designed to the Type I and Type II polyadenylation sites.
To evaluate whether treatment with two oligonucleotides would result in the production of a single species of E-selectin message, HUVEC were treated with ISIS 106344, and either ISIS 135568 or ISIS 135570 (150 nM each). […] Cells were also treated with both ISIS 135568 and ISIS 135570.

[6] = tested on: human bcl-x mRNA; experiment: Total bcl-x mRNA and bcl-xs/bcl-xl ratio in A549 cells, RNase protection; assay type: cell-based
[7] = tested on: human bcl-xs mRNA; experiment: bcl-xs mRNA in A549 cells, RIBOQUANT RNase protection; assay type: cell-based; details: 200 nM oligonucleotide (Table 15)
Source text: (§3) In accordance with the present invention, a series of oligonucleotides were designed to target different regions of human bcl-x RNA, using published sequences (Boise, L. H., et al., 1993, Cell 74, 597-608; Genbank Accession No. L20121, locus name “HSBCLXL,” incorporated herein as SEQ ID NO: 39). Antisense oligonucleotides were designed to target areas of exon 1 and exon 2 of human bcl-x, particularly around the exon 1/exon 2 splice site and in sequence regions present in bcl-xl but not in bcl-xs. All backbone linkages are phosphorothioates; All 2′MOE cytosines are 5-methylcytosines.
(§4) Oligonucleotides were evaluated for their respective effects on bcl-xs and bcl-xl3 mRNA levels in A549 cells along with total bcl-x mRNA levels, using the RIBOQUANT™ RNase protection kit (Pharmingen, San Diego Calif.). All assays were performed according to manufacturer's protocols.
(§5) A “walk” was done in this region with 20mer 2′-MOE phosphorothioate oligonucleotides targeted to sequences whose 5′ ends were 24, 26, 29, 31, 33, 37, 39, 41, 43, 44, 45 and 47 bases upstream of the splice site. These oligonucleotides were screened as before at a dose of 200 nM oligonucleotide for effect on short and long bcl-x transcripts.

[8] = tested on: human bcl-xl mRNA; experiment: bcl-xl mRNA in A549 cells, RIBOQUANT RNase protection; assay type: cell-based; details: 200 nM oligonucleotide (Table 15)
Source text: as §3, §4, §5

[9] = tested on: human bcl-x mRNA; experiment: Total bcl-x mRNA and bcl-xs/bcl-xl ratio in A549 cells, RNase protection; assay type: cell-based; details: for bcl-xs/bcl-xl: 200 nM oligonucleotide (Table 15); for ratio of bcl-xs/bcl-xl: Oligo Concentration 200 (unit not given)
Source text: as §3, §4, §5

[10] = tested on: TF-1 cells; experiment: Apoptosis induction in TF-1 cells, Annexin-V staining; assay type: cell-based, human; details: 48 hours, IL-5 0.5 ng/ml
Protocol: 1×10^6 TF-1 cells cultured in IL-5 (0.5 ng/ml) were collected 48 hours following oligonucleotide treatment (transfection was by electroporation as described in previous examples) and phosphatidylserine expression was detected as a measure of apoptosis using the Annexin-V staining kit (Clontech, Palo Alto, Calif.) according to the manufacturer's instructions. Briefly, cells were resuspended in 0.2 ml of staining buffer (10 mM Hepes, pH 7.4, 140 mM NaCl, 5 mM CaCl2) and […] of propidium iodide (50 μg/ml) and 5 μl of Annexin V reagent were added at 4° C. for 10 minutes. The samples were diluted with FacsFlow (Becton Dickinson, Franklin Lakes N.J.) buffer and analyzed on a Becton Dickinson FACScan.

[11] = Oligo Concentration 50 (unit not given)
[12] = Oligo Concentration 100 (unit not given)
[13] = Oligo Concentration 400 (unit not given)
[14] = Oligo Concentration 600 (unit not given)

## ISIS 106345: AGAAAGAGACTTAACACAGA, SEQ ID 67; uniformly 2′-MOE phosphorothioate; E-selectin Type III poly(A) site (all 2'-MOE, all phosphorothioate, methylation of C not given here)
[1]
  longer Type III E-selectin message (Northern blot): decreased
  shorter E-selectin message (Type I and II) (Northern blot): increased

## ISIS 16758: TCATCATTTCCTGGTGGAAA, SEQ ID 35; I11/E12; uniform 2′-MOE (antisense eT*e[5mC]*eA*eT*e[5mC]*eA*eT*eT*eT*e[5mC]*e[5mC]*eT*eG*eG*eT*eG*eG*eA*eA*eA)
[2]; 36 hr
  % INHIB, human IL-5 receptorα protein on the cell surface: over 50%
[2]; TF-1 cells, read-out: IC50 for reduction of IL-5 receptorα cell surface protein
  IC50: ~5 µM
[3]; TF-1 cells
  cell proliferation in response to IL-5 (summary): greatly reduces cellular response to IL-5
[4]
  effect on IL-5 receptorα mRNA levels: without reducing mRNA levels

## ISIS 135570: CAGAACTTTATTCTGGTTAACATCATG, SEQ ID 71; E-selectin Type I poly(A) signal (all 2'-MOE, all phosphorothioate, methylation of C not given here)
[5]
  Type I E-selectin message (RT-PCR): greatly reduced
  Type II E-selectin message (RT-PCR): increased
  Type III E-selectin message (RT-PCR): increased

## 22783 (e[5mC]*eT*eG*eG*eA*eT*e[5mC]*e[5mC]*eA*eA*eG*eG*e[5mC]*eT*e[5mC]*eT*eA*eG*eG*eT) [compound 22783]
[6]; [11]
  ratio of bcl-xs/bcl-xl: 3
[6]; [12]
  ratio of bcl-xs/bcl-xl: 2
[6]; [13]
  ratio of bcl-xs/bcl-xl: 24
[6]; [14]
  ratio of bcl-xs/bcl-xl: 28
[7]
  % CONTROL bcl-xs: 247%
[8]
  % CONTROL bcl-xl: 47%
[9]; A549 cells
  bcl-xs/bcl-xl: 5.25
[9]; A549 cells, no oligo 17.56
  bcl-xs/bcl-xl (%): 293.1%
[9]
  ratio of bcl-xs/bcl-xl: 7

## ISIS 135568: GCTTTTATTAGTTCAAAACGTTTGG, SEQ ID 70; E-selectin Type II poly(A) signal (all 2'-MOE, all phosphorothioate, methylation of C not given here)
[5]
  Type I E-selectin message (RT-PCR): corresponding increases
  Type II E-selectin message (RT-PCR): sharp decrease
  Type III E-selectin message (RT-PCR): corresponding increases

## 26066 (ATCCAAGGCTCTAGGTGGTC; all 2'-MOE, all phosphorothioate, methylation of C not given here) [compound 26066]
[6]; [11]
  ratio of bcl-xs/bcl-xl: 6
[6]; [12]
  ratio of bcl-xs/bcl-xl: 11
[6]; [13]
  ratio of bcl-xs/bcl-xl: 25
[7]
  % CONTROL bcl-xs: 400%
[8]
  % CONTROL bcl-xl: 26%
[9]; A549 cells
  bcl-xs/bcl-xl: 15.38
[9]
  ratio of bcl-xs/bcl-xl: 24

## 16758 (antisense eT*e[5mC]*eA*eT*e[5mC]*eA*eT*eT*eT*e[5mC]*e[5mC]*eT*eG*eG*eT*eG*eG*eA*eA*eA) [compound 16758]
[2]; 36 hr
  % INHIB, human IL-5 receptorα protein on the cell surface: 94.5%
  % of CONTROL, human IL-5 receptorα protein on the cell surface: 5.5%
[3]; oligo dose 10 μM
  % of control thymidine incorporation: 42.8%
[3]; oligo dose 15 μM
  % of control thymidine incorporation: 39.2%
[3]; oligo dose 20 μM
  % of control thymidine incorporation: 19.9%
[4]; 18 hr
  % of CONTROL, human IL-5 receptorα membrane form mRNA: 176%
[10]; oligo dose 10 μM
  % Apoptotic cells: 33.1%
[10]; oligo dose 15 μM
  % Apoptotic cells: 40.1%
[10]; oligo dose 20 μM
  % Apoptotic cells: 50.4%

## 26072 (antisense CCGCCGTTCTCCTGGATCCA; all 2'-MOE, all phosphorothioate, methylation of C not given here) [compound 26072]
[7]
  % CONTROL bcl-xs: 226%
[8]
  % CONTROL bcl-xl: 42%
[9]; A549 cells
  bcl-xs/bcl-xl: 5.38

## 26080 (antisense CTGGTTACACGACTCCAGGT; mismatch control, further chemistry not given here) [compound 26080]
[6]; [13]
  ratio of bcl-xs/bcl-xl: 1
[6]; [14]
  ratio of bcl-xs/bcl-xl: 3
[9]
  ratio of bcl-xs/bcl-xl: <1

## 18011 (eT*e[5mC]*eA*eG*e[5mC]*eA*eG*eT*eT*eA*e[5mC]*eT*eT*eG*eT*eG*eT*eA*eA*eA) [compound 18011]
[3]; oligo dose 10 μM
  % of control thymidine incorporation: 95.6%
[3]; oligo dose 15 μM
  % of control thymidine incorporation: 97.9%
[3]; oligo dose 20 μM
  % of control thymidine incorporation: 84.6%
[10]; oligo dose 10 μM
  % Apoptotic cells: 19%
[10]; oligo dose 15 μM
  % Apoptotic cells: 23.6%
[10]; oligo dose 20 μM
  % Apoptotic cells: 21.8%

Reference: patent publication US20020049173A1, “Alteration of cellular behavior by antisense modulation of mRNA processing” (priority 1999, published 2002)
